What is called IC50 is the concentration needed to halve the response being measured.

For one experiment, the target named is T1, Beta-glucosidase (Homo sapiens, UniProt Q9HCG7).
T1 sequence (Q9HCG7 whole entry): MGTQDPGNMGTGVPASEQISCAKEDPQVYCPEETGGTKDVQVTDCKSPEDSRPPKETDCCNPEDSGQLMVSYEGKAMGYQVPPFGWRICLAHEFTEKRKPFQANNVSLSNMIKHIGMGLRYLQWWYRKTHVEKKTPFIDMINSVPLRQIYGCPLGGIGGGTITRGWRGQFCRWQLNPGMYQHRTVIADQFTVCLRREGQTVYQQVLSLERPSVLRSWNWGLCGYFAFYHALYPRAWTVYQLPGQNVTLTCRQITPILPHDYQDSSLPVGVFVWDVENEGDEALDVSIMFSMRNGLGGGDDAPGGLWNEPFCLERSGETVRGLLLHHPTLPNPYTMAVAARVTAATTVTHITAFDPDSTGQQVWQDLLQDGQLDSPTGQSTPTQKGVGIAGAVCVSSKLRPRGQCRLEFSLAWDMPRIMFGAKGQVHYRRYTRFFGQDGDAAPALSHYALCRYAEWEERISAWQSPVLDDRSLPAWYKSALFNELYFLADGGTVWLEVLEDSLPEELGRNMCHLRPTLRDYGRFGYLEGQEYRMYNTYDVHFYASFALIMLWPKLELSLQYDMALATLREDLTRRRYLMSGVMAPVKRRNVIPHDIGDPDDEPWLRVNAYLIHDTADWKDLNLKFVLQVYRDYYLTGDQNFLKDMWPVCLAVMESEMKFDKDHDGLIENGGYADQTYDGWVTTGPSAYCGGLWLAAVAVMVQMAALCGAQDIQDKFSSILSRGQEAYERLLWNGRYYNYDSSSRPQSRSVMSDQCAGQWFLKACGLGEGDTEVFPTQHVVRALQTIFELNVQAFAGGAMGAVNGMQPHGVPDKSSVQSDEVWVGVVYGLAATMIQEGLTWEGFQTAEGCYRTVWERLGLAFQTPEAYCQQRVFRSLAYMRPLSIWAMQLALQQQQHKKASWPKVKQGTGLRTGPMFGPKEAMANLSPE
In words: Inhibition of recombinant GBA2 preincubated with compound for 30 mins using 4-methylumbelliferyl-B-glucoside substrate by fluorimetric assay.

The next experiment has as its target Sucrase-isomaltase (Mus musculus, UniProt B5THE3). In words: Inhibition of sucrase in mouse intestinal […] by glucose release assay.
Experiment [1] has as its target T2, Ceramide glucosyltransferase (Mus musculus, UniProt O88693).
T2 sequence (O88693 whole entry): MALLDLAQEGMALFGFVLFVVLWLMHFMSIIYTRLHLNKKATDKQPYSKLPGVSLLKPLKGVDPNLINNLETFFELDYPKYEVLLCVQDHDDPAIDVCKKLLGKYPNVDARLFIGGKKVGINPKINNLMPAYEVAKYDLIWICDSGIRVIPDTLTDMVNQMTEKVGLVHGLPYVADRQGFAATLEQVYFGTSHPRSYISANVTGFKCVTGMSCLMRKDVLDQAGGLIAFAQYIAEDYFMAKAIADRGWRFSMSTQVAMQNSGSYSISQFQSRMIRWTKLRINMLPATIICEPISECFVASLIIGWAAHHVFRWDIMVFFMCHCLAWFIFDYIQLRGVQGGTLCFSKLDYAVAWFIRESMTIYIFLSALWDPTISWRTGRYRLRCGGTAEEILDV
In words: Inhibition of glucosylceramide synthase in mouse RAW cells preincubated with compound for 15 mins by in-situ enzyme inhibition assay. Type of experiment: cell-based.

Experiment [2] deals with T3, Lysosomal acid glucosylceramidase (Homo sapiens, UniProt P04062).
T3 sequence (P04062 whole entry): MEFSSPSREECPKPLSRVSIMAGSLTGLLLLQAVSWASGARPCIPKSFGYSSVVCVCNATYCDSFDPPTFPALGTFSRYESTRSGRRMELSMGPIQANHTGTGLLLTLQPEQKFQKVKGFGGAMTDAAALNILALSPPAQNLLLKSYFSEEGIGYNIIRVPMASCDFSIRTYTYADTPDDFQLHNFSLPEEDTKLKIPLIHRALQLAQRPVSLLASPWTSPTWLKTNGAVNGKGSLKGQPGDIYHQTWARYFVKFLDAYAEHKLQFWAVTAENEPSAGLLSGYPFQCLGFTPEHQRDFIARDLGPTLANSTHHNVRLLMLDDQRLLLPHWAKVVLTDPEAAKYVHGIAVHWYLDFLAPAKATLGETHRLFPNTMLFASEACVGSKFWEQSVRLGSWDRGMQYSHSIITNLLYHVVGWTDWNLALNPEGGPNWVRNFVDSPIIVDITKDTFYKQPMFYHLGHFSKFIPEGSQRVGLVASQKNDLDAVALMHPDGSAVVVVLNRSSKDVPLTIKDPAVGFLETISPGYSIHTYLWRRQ
In words: Inhibition of recombinant GBA1 preincubated with compound for 30 mins using 4-methylumbelliferyl-B-glucoside substrate by fluorimetric assay.

Sequence of Sucrase-isomaltase (B5THE3 whole entry): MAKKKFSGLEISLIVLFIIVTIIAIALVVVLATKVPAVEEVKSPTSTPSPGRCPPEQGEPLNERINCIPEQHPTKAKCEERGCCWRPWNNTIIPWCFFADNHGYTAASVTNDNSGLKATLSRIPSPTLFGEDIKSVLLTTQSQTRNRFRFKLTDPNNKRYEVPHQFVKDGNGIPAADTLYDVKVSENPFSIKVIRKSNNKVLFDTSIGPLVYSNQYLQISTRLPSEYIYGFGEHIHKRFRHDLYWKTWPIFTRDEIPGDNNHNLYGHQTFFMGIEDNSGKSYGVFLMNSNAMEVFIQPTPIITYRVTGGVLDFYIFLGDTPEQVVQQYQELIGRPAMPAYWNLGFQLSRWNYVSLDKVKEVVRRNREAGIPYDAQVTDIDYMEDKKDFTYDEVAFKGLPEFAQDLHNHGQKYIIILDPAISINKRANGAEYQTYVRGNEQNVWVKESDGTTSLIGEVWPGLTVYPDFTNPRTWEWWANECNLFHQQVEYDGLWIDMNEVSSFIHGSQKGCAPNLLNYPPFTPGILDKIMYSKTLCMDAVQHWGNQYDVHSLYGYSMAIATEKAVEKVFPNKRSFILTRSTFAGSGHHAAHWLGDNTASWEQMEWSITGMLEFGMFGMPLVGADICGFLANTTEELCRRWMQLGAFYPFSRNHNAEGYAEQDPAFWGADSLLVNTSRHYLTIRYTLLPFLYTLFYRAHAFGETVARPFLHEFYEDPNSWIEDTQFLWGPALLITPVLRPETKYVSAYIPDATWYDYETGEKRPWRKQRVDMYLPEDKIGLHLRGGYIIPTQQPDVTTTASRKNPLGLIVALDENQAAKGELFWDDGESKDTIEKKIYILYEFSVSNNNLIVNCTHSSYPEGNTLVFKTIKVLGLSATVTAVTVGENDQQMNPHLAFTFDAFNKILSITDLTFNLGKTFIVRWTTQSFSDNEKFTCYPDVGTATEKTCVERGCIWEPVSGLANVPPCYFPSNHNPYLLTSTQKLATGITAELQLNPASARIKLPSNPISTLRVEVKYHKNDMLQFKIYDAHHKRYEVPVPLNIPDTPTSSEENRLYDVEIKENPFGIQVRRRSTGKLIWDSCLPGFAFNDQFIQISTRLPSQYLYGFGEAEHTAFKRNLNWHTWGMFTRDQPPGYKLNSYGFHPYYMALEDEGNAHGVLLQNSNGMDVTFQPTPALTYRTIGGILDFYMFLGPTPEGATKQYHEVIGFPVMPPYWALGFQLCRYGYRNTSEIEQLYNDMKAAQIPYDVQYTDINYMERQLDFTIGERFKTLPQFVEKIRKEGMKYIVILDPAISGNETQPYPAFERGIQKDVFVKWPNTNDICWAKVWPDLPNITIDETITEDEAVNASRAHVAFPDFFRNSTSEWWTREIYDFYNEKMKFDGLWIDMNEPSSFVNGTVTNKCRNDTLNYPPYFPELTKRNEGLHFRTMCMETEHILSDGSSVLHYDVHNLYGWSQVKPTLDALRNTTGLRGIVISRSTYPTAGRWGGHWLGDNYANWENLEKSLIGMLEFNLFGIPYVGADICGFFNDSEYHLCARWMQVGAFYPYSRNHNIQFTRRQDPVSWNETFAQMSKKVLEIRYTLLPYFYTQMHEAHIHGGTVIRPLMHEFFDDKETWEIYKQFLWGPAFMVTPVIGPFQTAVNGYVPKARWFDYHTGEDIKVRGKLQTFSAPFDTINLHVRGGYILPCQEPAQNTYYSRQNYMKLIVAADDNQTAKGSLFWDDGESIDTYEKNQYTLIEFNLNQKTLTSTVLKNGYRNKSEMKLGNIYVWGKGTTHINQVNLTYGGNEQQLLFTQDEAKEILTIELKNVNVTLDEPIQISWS

`CCCCCCCCN1C[C@H](O)[C@@H](O)[C@H](O)[C@H]1CO`: the concentration for half-maximal inhibition (IC50) at Beta-glucosidase was determined as 0.02 µM; at Sucrase-isomaltase, 0.75 µM; in experiment [1], 4 µM; in experiment [2], 4 µM.
For `CCCCCCCN1C[C@H](O)[C@@H](O)[C@H](O)[C@H]1CO`, the IC50 on Beta-glucosidase is 0.045 µM; in experiment [1], 40 µM; in experiment [2] it was 18.5 µM.
In the same order, the values of `CCCCCCCN1C[C@H](O)[C@@H](O)[C@H](O)[C@@H]1CO` are 0.04 µM, 4 µM and 700 µM.
For the compound `CCCCCN1C[C@H](O)[C@@H](O)[C@H](O)[C@H]1CO`, the 50% inhibitory concentration (IC50) on Beta-glucosidase was 0.4 µM; against Sucrase-isomaltase, 2 µM; in experiment [1], over 20 µM; in experiment [2], 500 µM.
Regarding `CCCCOCCCCCN1C[C@H](O)[C@@H](O)[C@H](O)[C@H]1CO`, the half-maximal inhibitory concentration (IC50) on Beta-glucosidase stood at 0.06 µM; on Sucrase-isomaltase, 2 µM; in experiment [1] it was 4 µM; in experiment [2] it was 30 µM.
For `CCCCCCCOCCCCCN1C[C@H](O)[C@@H](O)[C@H](O)[C@H]1CO`, the IC50 on Beta-glucosidase amounted to 0.015 µM; at Sucrase-isomaltase it was 1 µM; in experiment [1] it was 0.3 µM; in experiment [2], 1.75 µM.
In the same order, the values of `CCCCCCCCN1C[C@H](O)[C@@H](O)[C@H](O)[C@@H]1CO` are 0.02 µM, 60 µM, 4 µM and 25 µM.
As for `CCCCCCCCCN1C[C@H](O)[C@@H](O)[C@H](O)[C@@H]1CO`, the IC50 against Sucrase-isomaltase is over 1000 µM.
As to `CCCCCCCCCOCCCCCN1C[C@H](O)[C@@H](O)[C@H](O)[C@H]1CO`, the IC50 in experiment [1] amounted to 0.1 µM.
For `CCCCCCCCOCCCCCN1C[C@H](O)[C@@H](O)[C@H](O)[C@@H]1CO`, the IC50 on Beta-glucosidase is 0.015 µM; at Sucrase-isomaltase, over 1000 µM; in experiment [1], 0.05 µM; in experiment [2] it was 15 µM.
For `CCCCCCCCCN1C[C@H](O)[C@@H](O)[C@H](O)[C@H]1CO`, the IC50 against Sucrase-isomaltase stood at 0.4 µM.
Take `CCCCCCOCCCCCN1C[C@H](O)[C@@H](O)[C@H](O)[C@H]1CO`: the half-inhibitory concentration (IC50) was 0.008 µM on Beta-glucosidase and 1 µM in experiment [1].
As for `CCCCCOCCCCCN1C[C@H](O)[C@@H](O)[C@H](O)[C@@H]1CO`, the values for the half-maximal inhibitory concentration (IC50) (on Beta-glucosidase; in experiment [1]; in experiment [2]) were 0.015 µM, 0.15 µM and 100 µM, respectively.
As to `CCCCCCN1C[C@H](O)[C@@H](O)[C@H](O)[C@H]1CO`, the concentration for half-maximal inhibition (IC50) on Beta-glucosidase was 0.11 µM; against Sucrase-isomaltase it was 1 µM; in experiment [1], over 20 µM; in experiment [2], 80 µM.
For the compound `CCCCCCCCCOCCCCCN1C[C@H](O)[C@@H](O)[C@H](O)[C@@H]1CO`, in experiment [1], the IC50 is under 0.05 µM.
Turning to `CCCCOCCCCCN1C[C@H](O)[C@@H](O)[C@H](O)[C@@H]1CO`, the IC50 on Beta-glucosidase is 0.09 µM; at Sucrase-isomaltase, over 1000 µM; in experiment [1] it was 2 µM; in experiment [2], over 1000 µM.
As for `CCCCCCCOCCCCCN1C[C@H](O)[C@@H](O)[C@H](O)[C@@H]1CO`, the half-maximal inhibitory concentration (IC50) at Beta-glucosidase was 0.015 µM; at Sucrase-isomaltase it was over 1000 µM; in experiment [1], 0.05 µM; in experiment [2], 40 µM.
On to `CCCCCCOCCCCCN1C[C@H](O)[C@@H](O)[C@H](O)[C@@H]1CO`, for which the half-maximal inhibitory concentration (IC50) on Beta-glucosidase was 0.025 µM; in experiment [1], 0.1 µM.
Take `CCCCCCCCOCCCCCN1C[C@H](O)[C@@H](O)[C@H](O)[C@H]1CO`: the half-inhibitory concentration (IC50) on Beta-glucosidase was 0.01 µM; at Sucrase-isomaltase it was 1 µM; in experiment [1], 0.2 µM; in experiment [2], 0.5 µM.
The matching figures for `CCCCCCN1C[C@H](O)[C@@H](O)[C@H](O)[C@@H]1CO`: 0.14 µM, 600 µM, 40 µM and over 1000 µM.
Regarding `CCCCCN1C[C@H](O)[C@@H](O)[C@H](O)[C@@H]1CO`, the IC50 on Beta-glucosidase is 0.25 µM; against Sucrase-isomaltase, over 1000 µM; in experiment [1], 15 µM; in experiment [2], over 1000 µM.
Regarding `CCCCCOCCCCCN1C[C@H](O)[C@@H](O)[C@H](O)[C@H]1CO`, the IC50 came out at 0.04 µM on Beta-glucosidase, 2 µM in experiment [1] and 705 µM in experiment [2].

The values are drawn from ChEMBL document CHEMBL1649099, “Identification of potent and selective glucosylceramide synthase inhibitors from a library of N-alkylated iminosugars” (ACS Med Chem Lett, 2011).
